Assay results taken from patent publication US20250099420A1, “SMALL MOLECULE MODULATORS OF GPR139 COMPLEX” (University of Florida Research Foundation, Incorporated, priority 2022, published 2025).
Where two headings read alike, the source gives them in different places.

Experiments:
GPR139 = biological target: T1, GPR139 (Homo sapiens, UniProt Q6DWJ6); assay: GPR139 Agonist titration / agonist counterscreen assay (calcium detection, HEK-GPR139 cells); format: cell-based; set-up: expressed in transfected cells; host or cells: HEK Aequorin cells, Maxcyte transient transfection; conditions: GPR139 Agonist Activity; for Averaged Max % Response (±St. Dev.): activity relative to known control; for EC50: read-out: EC50
T1 sequence (Q6DWJ6 1-353): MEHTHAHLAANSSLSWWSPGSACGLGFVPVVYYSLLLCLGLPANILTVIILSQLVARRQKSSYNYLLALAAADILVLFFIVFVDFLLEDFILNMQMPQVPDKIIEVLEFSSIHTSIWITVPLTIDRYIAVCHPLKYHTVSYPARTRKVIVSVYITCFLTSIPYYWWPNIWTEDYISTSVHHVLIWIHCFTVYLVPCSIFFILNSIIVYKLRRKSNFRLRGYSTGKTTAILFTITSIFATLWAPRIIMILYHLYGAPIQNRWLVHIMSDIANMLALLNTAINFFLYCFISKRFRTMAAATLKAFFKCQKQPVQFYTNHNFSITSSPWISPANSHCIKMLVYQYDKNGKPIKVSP
Method: GPR activity was assessed using a calcium detection assay. […] Negative control samples were treated with DMSO. […] Intracellular calcium was measured using Calcium 5.

parental HEK cells = assay: HEK parental Agonist Counterscreen Assay (non-transfected cells); format: cell-based; conditions: for Averaged Max % Response (±St. Dev.): activity relative to known control
Text: The high control for the agonist counterscreen was Forskolin not acetylcholine.

[1] = values printed in E-notation without unit
[2] = HEK Agonist Activity section of Table 4 (parental HEK counterscreen)
[3] = Homo sapiens, HEK293, HEK Agonist Activity, parental non-transfected HEK cells
[4] = HEK Agonist Activity, parental non-transfected HEK cells
[5] = Homo sapiens, HEK293, HEK Agonist Activity section of Table 4 (parental HEK counterscreen)

Averaged Max % Response (±St. Dev.) (GPR139) [%]	Lipophilic Efficiency (logD) (GPR139; based on logD)	Lipophilic Efficiency (logP) (GPR139; based on logP)	Hill Slope (GPR139; fitted dose-response curve)	Efficiency Ligand (GPR139; ligand efficiency)	EC50 (GPR139; [1]) [nM]	Lipophilic Efficiency (logD) (parental HEK cells; HEK Agonist Activity section)	Lipophilic Efficiency (logP) (parental HEK cells; HEK Agonist Activity section)	Efficiency Ligand (GPR139)	Hill Slope (GPR139)	Lipophilic Efficiency (logD) (GPR139)	Lipophilic Efficiency (logP) (GPR139)	EC50 (GPR139; HEK-GPR139 cells) [nM]	Lipophilic Efficiency (logD) (parental HEK cells; HEK Agonist Activity)	Lipophilic Efficiency (logP) (parental HEK cells; HEK Agonist Activity)	SMILES	EC50 (parental HEK cells; [2]) [nM]	Averaged Max % Response (±St. Dev.) (parental HEK cells; HEK Agonist Activity section) [%]	Averaged Max % Response (±St. Dev.) (parental HEK cells; HEK Agonist Activity) [%]	EC50 (parental HEK cells; [5]) [nM]	further results
89.37 ± 8.48	4.16	4.16	0.51	0.38	82.9	1.93	1.93								COc1ccc(NC(=O)Cn2ncc3c2-c2ccccc2OC3)cc1Cl [SR-01000135070]	> 14100	7.87 ± 13.27			
89.89 ± 26.17						1.18	1.18	0.29	0.79	2.38	2.38	890			Cc1nn(CC(=O)NC2CCCc3ccccc32)c(=O)c2c1sc1ccccc12 (stereo not shown) [SR-01000139982]		9.26 ± 7.81		> 14100	
123.62 ± 30.65	4.22	4.22	0.32	0.36	106	2.10	2.10								CC(C(=O)NCCC1=CCCCC1)n1c(=O)c2cccn2c2ccccc21 (stereo not shown) [SR-01000142419]		−9.79 ± 12.86		> 14100	
108.00 ± 3.42	6.43	6.38	4.63	0.35	10.3								3.29	3.24	O=C(CC(C(=O)N1CCc2ccccc21)n1ccnc1)NCC1COc2ccccc2O1 (stereo not shown) [SR-01000144615]			−9.40 ± 4.48		EC50 (parental HEK cells; [3]): > 14100 nM
93.44 ± 12.43	4.94	4.88	1.08	0.34	229	3.15	3.09								O=C(CC(C(=O)N1CCc2ccccc21)n1ccnc1)N1CCCCCC1 (stereo not shown) [SR-01000144627]		28.51 ± 2.67		> 14100	
81.84 ± 7.77						2.82	2.34	0.30	0.84	4.49	4.01	301			O=C(CN1N=C(c2ccc(Cl)cc2)CCC1=O)NCCN1CCc2ccccc2C1 [SR-01000145135]	> 14100	−17.80 ± 4.24			

Further lines, the compound ahead of its results:

SMILES	Averaged Max % Response (±St. Dev.) (GPR139) [%]	Lipophilic Efficiency (logD) (GPR139; based on logD)	Lipophilic Efficiency (logP) (GPR139; based on logP)	Hill Slope (GPR139; fitted dose-response curve)	Efficiency Ligand (GPR139; ligand efficiency)	EC50 (GPR139; [1]) [nM]	Lipophilic Efficiency (logD) (parental HEK cells; HEK Agonist Activity section)	Lipophilic Efficiency (logP) (parental HEK cells; HEK Agonist Activity section)	Efficiency Ligand (GPR139)	Hill Slope (GPR139)	Lipophilic Efficiency (logD) (GPR139)	Lipophilic Efficiency (logP) (GPR139)	EC50 (GPR139; HEK-GPR139 cells) [nM]	Lipophilic Efficiency (logD) (parental HEK cells; HEK Agonist Activity)	Lipophilic Efficiency (logP) (parental HEK cells; HEK Agonist Activity)	EC50 (parental HEK cells; [2]) [nM]	Averaged Max % Response (±St. Dev.) (parental HEK cells; HEK Agonist Activity section) [%]	Averaged Max % Response (±St. Dev.) (parental HEK cells; HEK Agonist Activity) [%]	EC50 (parental HEK cells; [5]) [nM]	further results
Cc1ccc2c(c1)-c1c(cnn1CC(=O)Nc1ccc(F)cc1)CO2 [SR-01000136273]	78.44 ± 11.98						1.72	1.72	0.31	0.56	2.47	2.47	2500			> 14100	−14.31 ± 5.07			
Cc1ccc(CCNC(=O)Cn2cc3c(n2)CCCC3)cc1 [SR-01000137723]	136.99 ± 21.58	5.09	5.09	0.44	0.52	5.7								1.70	1.70			−4.03 ± 1.74		EC50 (parental HEK cells; [3]): > 14100 nM
CC(CCc1ccccc1)NC(=O)Cn1cc2c(n1)CCCC2 (stereo not shown) [SR-01000137757]	160.07 ± 33.89	4.32	4.32	0.09	0.48	15.3								1.35	1.35			−12.95 ± 5.94		EC50 (parental HEK cells; [3]): > 14100 nM
Cc1c2cnn(CC(=O)NC(C)c3ccccc3)c(=O)c2c(C)n1Cc1ccc(F)cc1 (stereo not shown) [SR-01000138428]	81.78 ± 16.61	4.85	4.85		0.38									1.03	1.03			−0.31 ± 7.41		EC50 (parental HEK cells; [4]): > 14100 nM
COc1cc(-c2noc(CCC(=O)Nc3cccc(C)c3C)n2)cc(OC)c1OC [SR-01000139458]	116.90 ± 31.97						0.80	0.80	0.29	1.12	2.20	2.20	556			> 14100	16.10 ± 9.95			
CNc1ccc(CCNC(=O)Cn2c3ccccc3c3nc(=O)cc(C)n32)cc1 [SR-01000139601]	109.30 ± 18.80						2.04	2.04	0.31	0.85	3.57	3.57	416				−14.37 ± 9.70		> 14100	
O=C(Cn1ncn2cccc2c1=O)NCCc1ccc(Cl)cc1 [SR-01000140172]	113.63 ± 31.77						3.41	3.41	0.40	0.89	5.11	5.11	278			> 14100	2.22 ± 10.07			
CC(C(=O)NCCc1ccc(Cl)cc1)n1ncn2cccc2c1=O (stereo not shown) [SR-01000140260]	114.94 ± 7.97	6.86	6.86	0.54	0.52	1.3								2.84	2.84			19.72 ± 7.61		EC50 (parental HEK cells; [4]): > 14100 nM
CC(=O)N1CCSc2cc(S(=O)(=O)NC3CCC(C)CC3)ccc21 (stereo not shown) [SR-01000141798]	62.31 ± 7.50						2.66	2.66	0.31	0.65	3.15	3.15	4600				2.60 ± 1.15		> 14100	
